Experimental data as given in patent publication US9018235B2, “Insecticide compositions” (priority 2004, dated 2015).
Read-outs that look alike come from different tables or passages of the source.

What was measured:
Type in all cases: in vivo
Chilo suppressalis = system: Chilo suppressalis
From the text: (§1) When the effect obtained by combination of two kinds of the active compounds exceeds the expected value E as calculated by the below-described equation of Colby et al., the synergistic effect is deemed to exist. E=X+Y−X·Y/100 [Equation 2] wherein • E=the death rate of larvae obtained when the active compounds A and B are used at the dose of m and n, respectively; • X=the death rate of larvae when the active compound A is used at the dose of m; • Y=the death rate of larvae when the active compound B is used at the dose of n.
A test compound was dissolved by adding acetone containing 5% of Tween 20 (tradename) at the rate of 0.1 ml per 1 mg of the test compound, and the insecticide solution prepared by diluting the solution with ion-exchange water to a predetermined concentration was drenched onto the surface of the soil for raising rice seedlings (5 to 6 seedlings/plant as planted in a paper pot) in the 2.5- to 3-leaf stage at the rate of 1 ml per plant. Two days later, the stalks about 2 cm higher above the soil surface were cut and placed in a test tube, into which 10 heads of 3-instar larvae of Chilo suppressalis were released. The test rube was kept in a breeding chamber controlled at a constant temperature (25° C.), and the number of living larvae was counted 4 to 5 days later. Death rate of larvae=(Number of larvae dead)/(Number of larvae tested)×100 [Equation 4]

Plutella xylostella [1] = experiment: Insecticidal effect against Plutella xylostella through plant-root soil drenching of cabbage (Test Example 4); conditions: single compound, plant-root drench, 2-instar larvae
From the text: as §1
A test compound was dissolved by adding acetone containing 5% of Tween 20 (tradename) at the rate of 0.1 ml per 1 mg of the test compound, and the solution was diluted with ion-exchange water to a total volume of 3 ml. Each of the insecticide solutions prepared was drenched onto the surface of the plant root soil for a cabbage plant grown in a cell tray (with a soil capacity of 24 ml). Four days later, the above-ground part of the plant was cut and placed in a plastic cup, into which 10 heads of 2-instar larvae of Plutella xylostella were released. The cup was kept in a breeding chamber controlled at a constant temperature (25° C.), and the number of living larvae was counted 4 days later. Death rate of larvae=(Number of larvae dead)/(Number of larvae tested)×100 [Equation 5]

Spodoptera litura [2] = experiment: Insecticidal effect against Spodoptera litura through soaking treatment of soybean roots (Test Example 2); conditions: single compound, soybean root soaking, 3-instar larvae
From the text: as §1
A test compound was dissolved by adding acetone containing 5 of Tween 20 (tradename) at the rate of 0.1 ml per 1 mg of the test compound, and the insecticide solution prepared by diluting the solution with ion-exchange water to a predetermined concentration was charged into a light-shielded Erlenmeyer flask (100 ml), into which the root portion of a soybean plant in the stage of development of primary leaves was soaked after being washed with running water to remove soil. Five days after root soaking, two primary leaves were cut off and placed in an ice-cream cup (with a capacity of 180 ml), into which 10 heads of 3-instar larvae were released. The ice-cream cup was kept in a breeding room controlled at a constant temperature (25° C.), and 5 days later, the number of dead larvae was counted. Death rate of larvae=(Number of larvae dead)/(Number of larvae tested)×100 [Equation 3]

Spodoptera litura [3] = experiment: Insecticidal effect against Spodoptera litura by soaking treatment of soybean leaves (Test Example 1); conditions: single compound, 0.03 ppm; soybean leaf soaking; 3-instar larvae; 25° C.
Description: A test compound was dissolved by addition of acetone containing 5% of Tween 20 (tradename) at the rate of 0.1 ml per 1 mg of the test compound, and after the solution is diluted with aqueous 5,000-fold diluted DAIN solution to a predetermined concentration, soybean leaves after complete development of primary leaves were treated through soaking in the insecticide solution for several seconds. After the insecticide solution was dried, four primary leaves were cut off and placed in an ice-cream cup (with a capacity of 180 ml), in which 10 heads of 3-instra larvae of Spodoptera litura were released. The ice-cream cup was kept in a breeding room controlled at a constant temperature (25° C.), and the number of dead larvae was counted three days later. Death rate of larvae=(Number of larvae dead)/(Number of larvae tested)×100 [Equation 1]
as §1

Plutella xylostella [4] = experiment: Insecticidal effect against Plutella xylostella through soaking treatment of cabbage leaf (Test Example 5); conditions: single compound, amount applied 0.0064 mg/plant (as headed), 2-instar larvae
From the text: as §1
A test compound was dissolved by adding acetone containing 5% of Tween 20 (tradename) at the rate of 0.1 ml per 1 mg of the test compound, and the insecticide solution was prepared by diluting the solution with an aqueous 5.000-fold diluted DAIN solution to a predetermined concentration. A cabbage leaf was cut off at the site of petiole and soaked in the insecticide solution for several seconds. […] The cup was kept in a breeding room controlled at a constant temperature (25° C.), and the number of dead larvae was counted 4 days later. The death rate of larvae was calculated by the following equation, and the results were shown in Table 8: (Death rate of larvae=(Number of larvae dead)/(Number of larvae tested)×100 [Equation 6]

For `CNC(=N[N+](=O)[O-])NCC1CCOC1` (racemic) [Dinotefuran, (RS)-1-methyl-2-nitro-3-(tetrahydro-3-furylmethyl)guanidine], the “Death rate, 5 days later, %” value (Chilo suppressalis; in vivo) was 0%, the “Death rate, 4 days later, %” value (Plutella xylostella [1]; 0.0016 mg/plant) was 0% and the “Death rate, 4 days later, %” value (Plutella xylostella [1]; 0.04 mg/plant) was 10%.

For `CN/C(=N\[N+](=O)[O-])NCc1cnc(Cl)s1` [Clothianidin, (E)-1-(2-chloro-1,3-thiazol-5-ylmethyl)-3-methyl-2-nitroguanidine], the “Death rate, 4 days later, %” value (Chilo suppressalis; single compound, 0.001 mg/plant, soil drench, rice, 3-instar larvae) was 10%, the “Death rate, 5 days later, %” value (Spodoptera litura [2]; 0.00032 ppm) was 0% and the “Death rate, 3 days later, %” value (Spodoptera litura [3]) was 0%.

For `Cc1cccc(C(=O)NC(C)C)c1NC(=O)c1cc(C(F)(F)F)nn1-c1ncccc1Cl` [Compound (I-1), 2-[1-(3-chloropyridin-2-yl)-3-trifluoromethylpyrazol-5-ylcarbonylamino]-N-isopropyl-3-methylbenzamide], the “Death rate, 4 days later, %” value (Chilo suppressalis; single compound, 0.01 mg/plant, soil drench, rice, 3-instar larvae) was 30% and the “Death rate, 5 days later, %” value (Spodoptera litura [2]; 0.007 ppm) was 55%.

With `Cc1cc(Cl)cc(C(=O)NC(C)C)c1NC(=O)c1cc(C(F)(F)F)nn1-c1ncccc1Cl` [Compound (I-2), 5-chloro-2-[1-(3-chloropyridin-2-yl)-3-trifluoromethylpyrazol-5-ylcarbonylamino]-N-isopropyl-3-methylbenzamide] the “Death rate, 4 days later, %” value (Plutella xylostella [1]; 0.0016 mg/plant) was 0% and the “Death rate, 3 days later, %” value (Spodoptera litura [3]) was 30%.

With `Cc1cccc(C(=O)NC(C)C)c1NC(=O)c1cc(Cl)nn1-c1ncccc1Cl` [Compound (I-3), 2-[1-(3-chloropyridin-2-yl)-3-chloropyrazol-5-ylcarbonylamino]-N-isopropyl-3-methylbenzamide] the “Death rate, 4 days later, %” value (Plutella xylostella [1]; 0.04 mg/plant) was 50%.

In the case of `Cc1cc(Cl)cc(C(=O)NC(C)C)c1NC(=O)c1cc(Cl)nn1-c1ncccc1Cl` [Compound (I-4), 5-chloro-2-[1-(3-chloropyridin-2-yl)-3-chloropyrazol-5-ylcarbonylamino]-N-isopropyl-3-methylbenzamide], the “Death rate, 4 days later, %” value (Plutella xylostella [4]) is reported as 15%.

`Cc1cccc(C(=O)NC(C)C)c1NC(=O)c1cc(Br)nn1-c1ncccc1Cl` [Compound (I-5), 2-[3-bromo-1-(3-chloropyridin-2-yl)pyrazol-5-ylcarbonylamino]-N-isopropyl-3-methylbenzamide] was tested, and the “Death rate, 5 days later, %” value (Chilo suppressalis; single compound, 0.15 mg/plant, soil drench, rice, 3-instar larvae) was 5%.

`Cc1cc(Cl)cc(C(=O)NC(C)C)c1NC(=O)c1cc(Br)nn1-c1ncccc1Cl` [Compound (I-6), 2-[3-bromo-1-(3-chloropyridin-2-yl)-pyrazol-5-ylcarbonylamino]-5-chloro-N-isopropyl-3-methylbenzamide] was tested, and the “Death rate, 5 days later, %” value (Spodoptera litura [2]; 0.00032 ppm) was 0%.

`CN1COCN(Cc2cnc(Cl)s2)C1=N[N+](=O)[O-]` [Thiamethoxam, 3-(2-chloro-1,3-thiazol-5-yl-methyl)-5-methyl-1,3,5-oxa-diazinan-4-ylidene(nitro)amine] was tested, and the “Death rate, 5 days later, %” value (Spodoptera litura [2]; 0.007 ppm) was 0% and the “Death rate, 4 days later, %” value (Plutella xylostella [4]) was 10%.
